Where “and” joins values, the source holds several entries; their conditions need not be identical. Equal entries are not always repeated. Toxic doses and inconclusive results are not listed.
Tested on: BDF1 mice, P388 leukemia ip, median survival T/C
Experiment: NCI In Vivo Anticancer Drug Screen. Data for tumor model P388 Leukemia (intraperitoneal) in B6D2F1 (BDF1) mice
Details: endpoint: median survival time, higher = longer survival
Summary of the method: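 Reported as T/C, where T is the survival measurement in dosed animals and C the same measurement in vehicle controls.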

[1] = dose: 100.0 mg/kg/injection, schedule: Q01DX009 (ip), vehicle: saline with Tween-80
[2] = dose: 200.0 mg/kg/injection, schedule: Q01DX009 (ip), vehicle: saline with Tween-80
[3] = dose: 400.0 mg/kg/injection, schedule: Q01DX009 (ip), vehicle: saline with Tween-80
[4] = dose: 6.25 mg/kg/injection, schedule: Q01DX009 (ip), vehicle: saline with Tween-80
[5] = dose: 12.5 mg/kg/injection, schedule: Q01DX009 (ip), vehicle: saline with Tween-80
[6] = dose: 50.0 mg/kg/injection, schedule: Q01DX009 (ip), vehicle: saline with Tween-80
[7] = dose: 100.0 mg/kg/injection, schedule: Q01DX009 (ip), vehicle: Klucel (hydroxypropylcellulose) (HPC)
[8] = dose: 200.0 mg/kg/injection, schedule: Q01DX009 (ip), vehicle: Klucel (hydroxypropylcellulose) (HPC)
[9] = dose: 100.0 mg/kg/injection, schedule: Q01DX001 (ip), vehicle: saline with Tween-80
[10] = dose: 200.0 mg/kg/injection, schedule: Q01DX001 (ip), vehicle: saline with Tween-80
[11] = dose: 400.0 mg/kg/injection, schedule: Q01DX001 (ip), vehicle: saline with Tween-80
[12] = dose: 100.0 mg/kg/injection, schedule: Q04DX003 (ip), vehicle: saline with Tween-80
[13] = dose: 200.0 mg/kg/injection, schedule: Q04DX003 (ip), vehicle: saline with Tween-80
[14] = dose: 400.0 mg/kg/injection, schedule: Q04DX003 (ip), vehicle: saline with Tween-80
[15] = dose: 100.0 mg/kg/injection, schedule: Q04DX003 (ip), vehicle: Klucel (hydroxypropylcellulose) (HPC)
[16] = dose: 200.0 mg/kg/injection, schedule: Q04DX003 (ip), vehicle: Klucel (hydroxypropylcellulose) (HPC)
[17] = dose: 400.0 mg/kg/injection, schedule: Q04DX003 (ip), vehicle: Klucel (hydroxypropylcellulose) (HPC)
[18] = dose: 100.0 mg/kg/injection, schedule: Q01DX009 (ip), vehicle: saline
[19] = dose: 100.0 mg/kg/injection, schedule: Q04DX003 (ip), vehicle: saline
[20] = dose: 200.0 mg/kg/injection, schedule: Q04DX003 (ip), vehicle: saline
[21] = dose: 400.0 mg/kg/injection, schedule: Q01DX009 (ip), vehicle: saline
[22] = dose: 400.0 mg/kg/injection, schedule: Q04DX003 (ip), vehicle: saline

CCSC(=O)N1c2ccc(OC)cc2C=CC1C#N (configuration not stated)
T/C [1]: 164 % of control | T/C [2]: 180 % of control | T/C [3]: 190 % of control | T/C (dose: 600.0 mg/kg/injection, schedule: Q04DX003 (ip), vehicle: saline with Tween-80): 150 % of control

O=c1c2ccccc2nc(-c2ccccc2)n1-c1nnc(C(F)(F)F)s1
T/C (dose: 3.12 mg/kg/injection, schedule: Q01DX009 (ip), vehicle: saline with Tween-80): 101 % of control | T/C [4]: 105 % of control | T/C [5]: 91 % of control

CC(=O)OC1CCCc2c1nc1ccccc1[n+]2[O-] (configuration not stated)
T/C [6]: 88 % of control | T/C [1]: 100 % of control | T/C [2]: 96 % of control

CSc1ncc(CO)c(N)n1
T/C [7]: 91 % of control | T/C [8]: 95 % of control | T/C (dose: 400.0 mg/kg/injection, schedule: Q01DX009 (ip), vehicle: Klucel (hydroxypropylcellulose) (HPC)): 87 % of control

CC(C)=CCOc1ccc(C(=O)/C=C/c2ccc(O)cc2)c(O)c1
T/C (dose: 1.25 mg/kg/injection, schedule: Q01DX009 (ip), vehicle: Klucel (hydroxypropylcellulose) (HPC)): 93 % of control | T/C (dose: 2.5 mg/kg/injection, schedule: Q01DX009 (ip), vehicle: Klucel (hydroxypropylcellulose) (HPC)): 115 % of control | T/C (dose: 5.0 mg/kg/injection, schedule: Q01DX009 (ip), vehicle: Klucel (hydroxypropylcellulose) (HPC)): 109 % of control | T/C (dose: 10.0 mg/kg/injection, schedule: Q01DX009 (ip), vehicle: Klucel (hydroxypropylcellulose) (HPC)): 107 % of control | T/C (dose: 20.0 mg/kg/injection, schedule: Q01DX009 (ip), vehicle: Klucel (hydroxypropylcellulose) (HPC)): 97 % of control | T/C (dose: 40.0 mg/kg/injection, schedule: Q01DX009 (ip), vehicle: Klucel (hydroxypropylcellulose) (HPC)): 98 % of control

COc1cc(O)c2c(c1)Cc1cc(C)cc(O)c1C2=O
T/C [4]: 101 % of control | T/C [5]: 109 % of control

N#CC(Br)(Br)C(N)=O
T/C (dose: 2.5 mg/kg/injection, schedule: Q01DX009 (ip), vehicle: saline): 115 % of control | T/C (dose: 5.0 mg/kg/injection, schedule: Q01DX009 (ip), vehicle: saline): 102 % of control

O=C(CCC(O)c1ccccc1)NCc1ccccc1 (configuration not stated)
T/C [9]: 104 % of control | T/C [10]: 100 % of control | T/C [11]: 90 % of control

CCOc1c(Br)cc(Br)cc1C=O
T/C [1]: 104 % of control | T/C [12]: 109 % of control | T/C [2]: 113 % of control | T/C [13]: 109 % of control | T/C [3]: 100 % of control | T/C [14]: 95 % of control

CCCCn1cnc2c(SC)nc(N)nc21
T/C (dose: 66.0 mg/kg/injection, schedule: Q01DX009 (ip), vehicle: Klucel (hydroxypropylcellulose) (HPC)): 95 % of control | T/C [7]: 104 % of control | T/C [15]: 100 % of control | T/C (dose: 150.0 mg/kg/injection, schedule: Q01DX009 (ip), vehicle: Klucel (hydroxypropylcellulose) (HPC)): 100 % of control | T/C [16]: 90 % of control | T/C [17]: 90 % of control

CCCCCC(CN(C)C)C(=O)/C=C/c1cccc(O)c1 (configuration not stated)
T/C [6]: 106 % of control | T/C [1]: 98 % of control

N#Cc1c(Nc2cccc(Cl)c2)sc(C(=O)c2cc3cc(Cl)ccc3o2)c1N
T/C [6]: 109 % of control | T/C [1]: 100 % of control | T/C [2]: 93 % of control

CCCCCCCC(=O)Nc1ccc(C)cc1C
T/C (dose: 100.0 mg/kg/injection, schedule: Q04DX003 (ip), vehicle: other): 95 % of control | T/C (dose: 200.0 mg/kg/injection, schedule: Q04DX003 (ip), vehicle: other): 104 % of control | T/C (dose: 400.0 mg/kg/injection, schedule: Q04DX003 (ip), vehicle: other): 95 % of control

CCC(CO)NC(=O)Nc1cccc2ccccc12 (configuration not stated)
T/C [9]: 109 % of control | T/C [10]: 100 % of control | T/C [11]: 109 % of control

CCOC(=O)C1CCCNC1 (configuration not stated)
T/C [18]: 104 % of control | T/C [19]: 95 % of control | T/C (dose: 200.0 mg/kg/injection, schedule: Q01DX009 (ip), vehicle: saline): 100 % of control | T/C [20]: 91 % of control | T/C [21]: 112 % of control | T/C [22]: 87 % of control

C[n+]1ccc(C#N)c2ccccc21
T/C (dose: 1.1 mg/kg/injection, schedule: Q04DX003 (ip), vehicle: saline): 92 % of control and 100 % of control | T/C (dose: 1.71 mg/kg/injection, schedule: Q04DX003 (ip), vehicle: saline): 95 % of control | T/C (dose: 2.5 mg/kg/injection, schedule: Q04DX003 (ip), vehicle: saline): 88 % of control and 95 % of control | T/C (dose: 3.12 mg/kg/injection, schedule: Q01DX009 (ip), vehicle: saline): 104 % of control | T/C (dose: 3.43 mg/kg/injection, schedule: Q04DX003 (ip), vehicle: saline): 120 % of control | T/C (dose: 6.25 mg/kg/injection, schedule: Q01DX009 (ip), vehicle: saline): 118 % of control | T/C (dose: 6.87 mg/kg/injection, schedule: Q04DX003 (ip), vehicle: saline): 100 % of control | T/C (dose: 7.5 mg/kg/injection, schedule: Q04DX003 (ip), vehicle: saline with Tween-80): 91 % of control | T/C (dose: 11.0 mg/kg/injection, schedule: Q01DX009 (ip), vehicle: saline): 120 % of control | T/C (dose: 12.5 mg/kg/injection, schedule: Q01DX009 (ip), vehicle: saline): 118 % of control | T/C (dose: 15.0 mg/kg/injection, schedule: Q04DX003 (ip), vehicle: saline with Tween-80): 104 % of control

NC(N)=N/N=C/C=N/N=C(N)N
T/C [19]: 100 % of control

CCOC(=O)/C(C#N)=C/c1cc2c3c(c1)CCCN3CCC2
T/C [12]: 90 % of control | T/C [13]: 90 % of control | T/C [14]: 86 % of control

COc1cc(Cl)c(CC(=O)c2c[nH]c3ccccc23)cc1OC
T/C [6]: 103 % of control | T/C [2]: 99 % of control

O=C(c1ccco1)C1Cc2ccccc2C1=O (configuration not stated)
T/C [1]: 116 % of control | T/C [12]: 91 % of control | T/C [2]: 104 % of control | T/C [13]: 104 % of control | T/C [3]: 100 % of control | T/C [14]: 108 % of control

CC(/C=N/N=C(N)N)=N\N=C(N)N
T/C (dose: 40.0 mg/kg/injection, schedule: Q01DX009 (ip), vehicle: water): 86 % of control | T/C (dose: 60.0 mg/kg/injection, schedule: Q01DX010 (ip), vehicle: water): 88 % of control

COc1ccc(CCCC(=O)O)cc1OC
T/C [6]: 108 % of control | T/C [1]: 105 % of control | T/C [2]: 103 % of control

N=C(N)c1ccc(Nc2ccc(C(=N)N)cc2)cc1
T/C (dose: 3.0 mg/kg/injection, schedule: Q01DX010 (ip), vehicle: saline): 100 % of control | T/C (dose: 6.0 mg/kg/injection, schedule: Q01DX010 (ip), vehicle: saline): 91 % of control and 95 % of control | T/C (dose: 12.0 mg/kg/injection, schedule: Q01DX010 (ip), vehicle: saline): 91 % of control and 100 % of control | T/C (dose: 24.0 mg/kg/injection, schedule: Q01DX010 (ip), vehicle: saline): 95 % of control

CC1(C)CC(=O)CC(C)(C)N1O
T/C [15]: 100 % of control | T/C [16]: 100 % of control | T/C [17]: 104 % of control

O=S1(=O)CCN(C2CCCCCCCCCCC2)CC1
T/C (dose: 50.0 mg/kg/injection, schedule: Q01DX009 (ip), vehicle: Klucel (hydroxypropylcellulose) (HPC)): 108 % of control | T/C [7]: 106 % of control | T/C [8]: 101 % of control

CCOC(=O)CN(C)C#N
T/C (dose: 50.0 mg/kg/injection, schedule: Q01DX009 (ip), vehicle: saline): 110 % of control | T/C (dose: 87.5 mg/kg/injection, schedule: Q01DX009 (ip), vehicle: saline): 109 % of control | T/C [18]: 105 % of control | T/C [19]: 104 % of control | T/C (dose: 175.0 mg/kg/injection, schedule: Q01DX009 (ip), vehicle: saline): 104 % of control | T/C [20]: 104 % of control | T/C (dose: 265.0 mg/kg/injection, schedule: Q01DX009 (ip), vehicle: saline): 109 % of control | T/C [21]: 95 % of control | T/C [22]: 104 % of control
